Patent US8278345B2, “Inhibitors of glutaminyl cyclase” (Probiodrug AG, priority 2006, dated 2012)
Where two headings read alike, the source gives them in different places.

Molecular target: hQC (Homo sapiens, UniProt Q16769)
Assay: Inhibitor assay for glutaminyl cyclase activity (fluorometric, H-Gln-βNA / H-Gln-AMC)
Format: biochemical
Protocol: All measurements were performed with a BioAssay Reader HTS-7000Plus for microplates (Perkin Elmer) at 30° C. QC activity was evaluated fluorometrically using H-Gln-βNA. The samples consisted of 0.2 mM fluorogenic substrate, 0.25 U pyroglutamyl aminopeptidase (Unizyme, Hørsholm, Denmark) in 0.2 M Tris/HCl, pH 8.0 containing 20 mM EDTA and an appropriately diluted aliquot of QC in a final volume of 250 μl. Excitation/emission wavelengths were 320/410 nm. The assay reactions were initiated by addition of glutaminyl cyclase. QC activity was determined from a standard curve of β-naphthylamine under assay conditions. One unit is defined as the amount of QC catalyzing the formation of 1 μmol pGlu-βNA from H-Gln-βNA per minute under the described conditions.
In a second fluorometric assay, QC activity was determined using H-Gln-AMC as substrate. Reactions were carried out at 30° C. utilizing the NOVOStar reader for microplates (BMG labtechnologies). The samples consisted of varying concentrations of the fluorogenic substrate, 0.1 U pyroglutamyl aminopeptidase (Qiagen) in 0.05 M Tris/HCl, pH 8.0 containing 5 mM EDTA and an appropriately diluted aliquot of QC in a final volume of 250 μl. Excitation/emission wavelengths were 380/460 nm. The assay reactions were initiated by addition of glutaminyl cyclase. QC activity was determined from a standard curve of 7-amino-4-methylcoumarin under assay conditions. The kinetic data were evaluated using GraFit sofware.
For inhibitor testing, the sample composition was the same as described above, except of the putative inhibitory compound added. For a rapid test of QC-inhibition, samples contained 4 mM of the respective inhibitor and a substrate concentration at 1 KM. For detailed investigations of the inhibition and determination of Ki-values, influence of the inhibitor on the auxiliary enzymes was investigated first. In every case, there was no influence on either enzyme detected, thus enabling the reliable determination of the QC inhibition. The inhibitory constant was evaluated by fitting the set of progress curves to the general equation for competitive inhibition using GraFit software.

[1] = compound from preparative synthesis, purified, read-out: IC50 hQC

hQC, sequence (Q16769 29-361): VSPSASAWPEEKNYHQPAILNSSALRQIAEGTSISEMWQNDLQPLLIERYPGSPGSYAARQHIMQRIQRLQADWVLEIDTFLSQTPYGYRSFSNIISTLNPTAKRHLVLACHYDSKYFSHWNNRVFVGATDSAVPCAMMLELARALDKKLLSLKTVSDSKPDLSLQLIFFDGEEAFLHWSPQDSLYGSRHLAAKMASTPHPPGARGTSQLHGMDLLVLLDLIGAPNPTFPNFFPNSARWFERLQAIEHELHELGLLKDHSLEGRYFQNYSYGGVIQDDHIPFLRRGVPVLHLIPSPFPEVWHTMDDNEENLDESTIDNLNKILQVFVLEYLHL

Row | Compound | IC50 (read-out: IC50) | IC50 [1]
1 | CC(C)C1=C(O)C(=O)N(CCCn2ccnc2)C1c1cccc(Cl)c1 (stereo not shown) [Compound 73, 5-(3-Chloro-phenyl)-3-hydroxy-1-(3-imidazol-1-yl-propyl)-4-isopropyl-1,5-dihydro-pyrrol-2-one] | 3100 nM | 
2 | CC(C)C1=C(O)C(=O)N(CCCn2ccnc2)C1c1ccccc1F (stereo not shown) [Compound 74, 5-(2-Fluoro-phenyl)-3-hydroxy-1-(3-imidazol-1-yl-propyl)-4-isopropyl-1,5-dihydro-pyrrol-2-one] | 2200 nM | 
3 | CC(C)C1=C(O)C(=O)N(CCCn2ccnc2)C1c1cccc(O)c1 (stereo not shown) [Compound 75, 3-Hydroxy-5-(3-hydroxy-phenyl)-1-(3-imidazol-1-yl-propyl)-4-isopropyl-1,5-dihydro-pyrrol-2-one] | 4900 nM | 
4 | O=C1C(O)=C(c2ccccc2)C(c2cc(Cl)cc(Cl)c2O)N1CCCn1ccnc1 (stereo not shown) [Compound 76, 5-(3,5-Dichloro-2-hydroxy-phenyl)-3-hydroxy-1-(3-imidazol-1-yl-propyl)-4-phenyl-1,5-dihydro-pyrrol-2-one] | 40 nM | 
5 | Cc1ccc(C2C(c3ccccc3)=C(O)C(=O)N2CCCn2ccnc2)cc1 (stereo not shown) [Compound 77, 3-Hydroxy-1-(3-imidazol-1-yl-propyl)-4-phenyl-5-p-tolyl-1,5-dihydro-pyrrol-2-one] | 40 nM | 1910 nM
6 | CCC/C=C/C1C(c2ccccc2)=C(O)C(=O)N1CCCn1ccnc1 (stereo not shown) [Compound 78, 3-Hydroxy-1-(3-imidazol-1-yl-propyl)-5-(pent-1-enyl)-4-phenyl-1,5-dihydro-pyrrol-2-one] | 40 nM | 
7 | CCC(C)C1C(c2ccccc2)=C(O)C(=O)N1CCCn1ccnc1 (stereo not shown) [Compound 79, 5-sec-Butyl-3-hydroxy-1-(3-imidazol-1-yl-propyl)-4-phenyl-1,5-dihydro-pyrrol-2-one] | 400 nM | 
8 | CCCC1C(c2ccccc2)=C(O)C(=O)N1CCCn1ccnc1 (stereo not shown) [Compound 80, 3-Hydroxy-1-(3-imidazol-1-yl-propyl)-4-phenyl-5-propyl-1,5-dihydro-pyrrol-2-one] | 400 nM | 
9 | O=C1C(O)=C(c2ccccc2)C(c2cc[nH]n2)N1CCCn1ccnc1 (stereo not shown) [Compound 81, 3-Hydroxy-1-(3-imidazol-1-yl-propyl)-4-phenyl-5-(1H-pyrazol-3-yl)-1,5-dihydro-pyrrol-2-one] | 3100 nM | 
10 | O=C1C(O)=C(c2ccccc2)C(C(O)CO)N1CCCn1ccnc1 (stereo not shown) [Compound 82, 5-(1,2-Dihydroxy-ethyl)-3-hydroxy-1-(3-imidazol-1-yl-propyl)-4-phenyl-1,5-dihydro-pyrrol-2-one] | 3100 nM | 
11 | CC(C)/C=C/C1C(c2ccccc2)=C(O)C(=O)N1CCCn1ccnc1 (stereo not shown) [Compound 83, 3-Hydroxy-1-(3-imidazol-1-yl-propyl)-5-(3-methyl-but-1-enyl)-4-phenyl-1,5-dihydro-pyrrol-2-one] | 6700 nM | 
12 | Cc1ccc(C2C(c3ccccc3)=C(O)C(=O)N2CCCn2ccnc2)o1 (stereo not shown) [Compound 84, 3-Hydroxy-1-(3-imidazol-1-yl-propyl)-5-(5-methyl-furan-2-yl)-4-phenyl-1,5-dihydro-pyrrol-2-one] | 2200 nM | 
13 | O=C1C(O)=C(c2ccccc2)C(c2ccc3[nH]ccc3c2)N1CCCn1ccnc1 (stereo not shown) [Compound 85, 3-Hydroxy-1-(3-imidazol-1-yl-propyl)-5-(1H-indol-5-yl)-4-phenyl-1,5-dihydro-pyrrol-2-one] | 40 nM | 640 nM
14 | COc1ccc(C2C(c3ccccc3)=C(O)C(=O)N2CCCn2ccnc2)cc1 (stereo not shown) [Compound 86, 3-Hydroxy-1-(3-imidazol-1-yl-propyl)-5-(4-methoxy-phenyl)-4-phenyl-1,5-dihydro-pyrrol-2-one] | 40 nM | 1230 nM
15 | O=C1C(O)=C(c2ccccc2)C(c2ccccc2O)N1CCCn1ccnc1 (stereo not shown) [Compound 87, 3-Hydroxy-5-(2-hydroxy-phenyl)-1-(3-imidazol-1-yl-propyl)-4-phenyl-1,5-dihydro-pyrrol-2-one] | 3100 nM | 
16 | Cc1ccc(C2C(c3ccccc3)=C(O)C(=O)N2CCCn2ccnc2)cc1C (stereo not shown) [Compound 88, 5-(3,4-Dimethyl-phenyl)-3-hydroxy-1-(3-imidazol-1-yl-propyl)-4-phenyl-1,5-dihydro-pyrrol-2-one] | 1300 nM | 
17 | CCCCCC1C(c2ccccc2)=C(O)C(=O)N1CCCn1ccnc1 (stereo not shown) [Compound 89, 3-Hydroxy-1-(3-imidazol-1-yl-propyl)-5-pentyl-4-phenyl-1,5-dihydro-pyrrol-2-one] | 40 nM | 
18 | CC1C(c2ccccc2)=C(O)C(=O)N1CCCn1ccnc1 (stereo not shown) [Compound 90, 3-Hydroxy-1-(3-imidazol-1-yl-propyl)-5-methyl-4-phenyl-1,5-dihydro-pyrrol-2-one] | 1300 nM | 

Row | Compound | IC50 (read-out: IC50) | IC50 [1]
19 | O=C1C(O)=C(c2ccccc2)C(c2ccc(CO)o2)N1CCCn1ccnc1 (stereo not shown) [Compound 91, 3-Hydroxy-5-(5-hydroxymethyl-furan-2-yl)-1-(3-imidazol-1-yl-propyl)-4-phenyl-1,5-dihydro-pyrrol-2-one] | 1300 nM | 
20 | O=C1C(O)=C(c2ccccc2)C(c2ccccc2)N1CCCn1ccnc1 (stereo not shown) [Compound 92, 3-Hydroxy-1-(3-imidazol-1-yl-propyl)-4,5-diphenyl-1,5-dihydro-pyrrol-2-one] | 3100 nM | 
21 | O=C1C(O)=C(c2ccccc2)C(C2CCC=CO2)N1CCCn1ccnc1 (stereo not shown) [Compound 93, 5-(3,4-Dihydro-2H-pyran-2-yl)-3-hydroxy-1-(3-imidazol-1-yl-propyl)-4-phenyl-1,5-dihydro-pyrrol-2-one] | 40 nM | 1670 nM
22 | O=C1C(O)=C(c2ccccc2)C(C2=CCCCC2)N1CCCn1ccnc1 (stereo not shown) [Compound 94, 5-Cyclohex-1-enyl-3-hydroxy-1-(3-imidazol-1-yl-propyl)-4-phenyl-1,5-dihydro-pyrrol-2-one] | 4900 nM | 
23 | Cc1ccc2c(C3C(c4ccccc4)=C(O)C(=O)N3CCCn3ccnc3)c[nH]c2c1 (stereo not shown) [Compound 95, 3-Hydroxy-1-(3-imidazol-1-yl-propyl)-5-(6-methyl-1H-indol-3-yl)-4-phenyl-1,5-dihydro-pyrrol-2-one] | 40 nM | 
24 | O=C1C(O)=C(c2ccccc2)C(C(F)(F)F)N1CCCn1ccnc1 (stereo not shown) [Compound 96, 3-Hydroxy-1-(3-imidazol-1-yl-propyl)-4-phenyl-5-trifluoromethyl-1,5-dihydro-pyrrol-2-one] | 400 nM | 
25 | O=C1C(O)=C(c2ccccc2)C(c2c[nH]c3ccccc23)N1CCCn1ccnc1 (stereo not shown) [Compound 97, 3-Hydroxy-1-(3-imidazol-1-yl-propyl)-5-(1H-indol-3-yl)-4-phenyl-1,5-dihydro-pyrrol-2-one] | 40 nM | 
26 | O=C1C(O)=C(c2ccccc2)C(c2ncc[nH]2)N1CCCn1ccnc1 (stereo not shown) [Compound 98, 3-Hydroxy-5-(1H-imidazol-2-yl)-1-(3-imidazol-1-yl-propyl)-4-phenyl-1,5-dihydro-pyrrol-2-one] | 1300 nM | 
27 | O=C1C(O)=C(c2ccccc2)C(Cc2ccccc2)N1CCCn1ccnc1 (stereo not shown) [Compound 99, 5-Benzyl-3-hydroxy-1-(3-imidazol-1-yl-propyl)-4-phenyl-1,5-dihydro-pyrrol-2-one] | 40 nM | 
28 | O=C1C(O)=C(c2ccccc2)C(c2c(O)ccc3ccccc23)N1CCCn1ccnc1 (stereo not shown) [Compound 100, 3-Hydroxy-5-(2-hydroxy-naphthalen-1-yl)-1-(3-imidazol-1-yl-propyl)-4-phenyl-1,5-dihydro-pyrrol-2-one] | 400 nM | 
29 | O=C1C(O)=C(c2ccccc2)C(c2ccccn2)N1CCCn1ccnc1 (stereo not shown) [Compound 101, 3-Hydroxy-1-(3-imidazol-1-yl-propyl)-4-phenyl-5-pyridin-2-yl-1,5-dihydro-pyrrol-2-one] | 400 nM | 
30 | O=C1C(O)=C(c2ccccc2)C(c2ccncc2)N1CCCn1ccnc1 (stereo not shown) [Compound 102, 3-Hydroxy-1-(3-imidazol-1-yl-propyl)-4-phenyl-5-pyridin-4-yl-1,5-dihydro-pyrrol-2-one] | 8500 nM | 
31 | O=C1C(O)=C(c2ccccc2)C(c2cccs2)N1CCCn1ccnc1 (stereo not shown) [Compound 103, 3-Hydroxy-1-(3-imidazol-1-yl-propyl)-4-phenyl-5-thiophen-2-yl-1,5-dihydro-pyrrol-2-one] | 1300 nM | 
32 | O=C1C(O)=C(c2ccccc2)C(CO)N1CCCn1ccnc1 (stereo not shown) [Compound 104, 3-Hydroxy-5-hydroxymethyl-1-(3-imidazol-1-yl-propyl)-4-phenyl-1,5-dihydro-pyrrol-2-one] | 40 nM | 
33 | O=C1C(O)=C(c2ccccc2)C(C2CC2)N1CCCn1ccnc1 (stereo not shown) [Compound 105, 5-Cyclopropyl-3-hydroxy-1-(3-imidazol-1-yl-propyl)-4-phenyl-1,5-dihydro-pyrrol-2-one] | 400 nM | 
34 | O=C1C(O)=C(c2ccccc2)C(c2ccco2)N1CCCn1ccnc1 (stereo not shown) [Compound 106, 5-Furan-2-yl-3-hydroxy-1-(3-imidazol-1-yl-propyl)-4-phenyl-1,5-dihydro-pyrrol-2-one] | 40 nM | 
35 | CCCCC1C(c2ccccc2)=C(O)C(=O)N1CCCn1ccnc1 (stereo not shown) [Compound 107, 5-Butyl-3-hydroxy-1-(3-imidazol-1-yl-propyl)-4-phenyl-1,5-dihydro-pyrrol-2-one] | 40 nM | 524 nM
